Data published in patent US20250214969A1, “PROTEIN DEGRADERS AND USES THEREOF” (Kymera Therapeutics, Inc., priority 2022, published 2025).

Key:
[1] = molecular target: T1, truncated His-MBP-Tev-KLHDC2 (residues 1-363) (Homo sapiens, UniProt Q9Y2U9); assay: KLHDC2 HTRF binding assay; conditions: 1 nM KLHDC2 (residues 1-363), fluorescein-labeled diglycine peptide probe
T1 construct: truncated His -MBP-Tev-KLHDC2 (residues 1-363) purified from E. coli; made in house; host or cells: E. coli
T1 sequence (Q9Y2U9 1-363): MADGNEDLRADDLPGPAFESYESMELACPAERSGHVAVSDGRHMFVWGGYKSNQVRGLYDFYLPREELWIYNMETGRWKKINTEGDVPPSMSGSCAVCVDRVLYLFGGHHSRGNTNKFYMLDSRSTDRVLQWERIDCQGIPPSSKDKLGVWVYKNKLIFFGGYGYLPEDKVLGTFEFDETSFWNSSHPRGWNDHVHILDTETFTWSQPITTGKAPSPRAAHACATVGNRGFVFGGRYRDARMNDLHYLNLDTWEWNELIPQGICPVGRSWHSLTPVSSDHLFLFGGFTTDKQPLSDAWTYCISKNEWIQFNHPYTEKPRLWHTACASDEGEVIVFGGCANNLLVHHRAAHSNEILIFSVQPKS

[2] = molecular target: T1, truncated His-MBP-Tev-KLHDC2 (residues 1-363); assay: KLHDC2 FP competition binding assay; conditions: 15 nM KLHDC2 (residues 1-363), 10 nM fluorescein-labeled diglycine peptide probe, read-out: KLHDC2 binding Human FP: average external IC50
Method: FP competition binding assays were performed using 15 nM truncated His -MBP-Tev-KLHDC2 (residues 1-363) purified from E. coli, 10 nM fluorescein-labeled diglycine peptide probe, and test compounds in assay buffer consisting of 50 mM HEPES-Na pH 7.5, 100 mM NaCl, 2 mM DTT, 0.005% Tween-20 with a final volume of 20 uL. Compound stocks were dissolved at 10 mM in 100% DMSO and 11 point titration with 3 fold serial dilution was performed in black, flat bottom 384 well microplates. Plates were incubated at room temperature for 30 minutes. Plates were centrifuged at 1000 rpm for 1 min, data were collected using an Envision plate reader in fluorescence polarization mode with excitation filter FITC FP at 480 nm, emission filter FITC FP P-pol at 535 nm and FITC FP S-pol at 535 nm. FP signal was calculated using the equation (mP=1000*(S-G*P)/(S+G*P), G-factor=1.0) and % Inhibition was calculated using no-protein controls for 100% inhibition and DMSO only reactions for 0l % inhibition (yes).

Row | SMILES | IC50 [1] [µM] | IC50 [2] [µM]
1 | O=C(O)Cn1cc(N2CC[C@]3(CCCN(c4cccnc4)C3)C2=O)ccc1=O [I-15] | 0.05 to 0.5 | > 5
2 | COc1cc(-c2ccccc2)ccc1C(=O)Nc1ccc(=O)n(CC(=O)O)c1 [I-203] | 0.5 to 5 | 0.5 to 5
3 | O=C(O)Cn1cc(NC(=O)c2cccc(-c3cccc(F)c3)c2)ccc1=O [I-298] | > 5 | > 5
4 | Cc1ccc(C(=O)Nc2ccc(=O)n(CC(=O)O)c2)nc1-c1cccnc1 [I-170] | 0.5 to 5 | > 5
5 | Cc1ccc(CC(C)C)cc1-c1ccc(=O)n(CC(=O)O)c1 [I-334] | > 5 | > 5
6 | O=C(O)Cn1cc(NC(=O)COc2ccc(F)cc2)ccc1=O [I-283] | > 5 | > 5
7 | O=C(O)Cn1cc(C(=O)Nc2ccccc2)ccc1=O [I-374] | > 5 | > 5
8 | O=C(O)Cn1cc(NC(=O)c2ccnc(-c3ccccc3)c2)ccc1=O [I-260] | > 5 | > 5
9 | O=C(O)Cn1cc(NC(=O)CCNC(=O)c2ccc3ccccc3c2)ccc1=O [I-190] | > 5 | > 5
10 | CCOC(=O)Cn1cc(NC(=O)c2cccc(-c3cnccc3CCCCCCNC(=O)OC(C)(C)C)c2)ccc1=O [I-156] | > 5 | > 5
11 | COc1c(C(=O)Nc2ccc(=O)n(CC(=O)O)c2)cccc1-c1ccccc1 [I-259] | 0.5 to 5 | > 5
12 | O=C(O)Cc1cccc(NC(=O)c2ccccc2)c1 [I-325] | > 5 | > 5
13 | Cc1cc(C(=O)Nc2ccc(=O)n(CC(=O)O)c2)sc1-c1cccnc1 [I-171] | > 5 | > 5
14 | O=C(O)Cn1cc(NC(=O)c2cccc(-c3cccnc3)c2)ccc1=O [I-281] | 0.5 to 5 | 0.5 to 5
15 | COc1cc(-c2ccc(F)cc2)ccc1C(=O)Nc1ccc(=O)n(CC(=O)O)c1 [I-155] | 0.05 to 0.5 | 0.5 to 5
16 | COc1cncc(-c2cccc(C(=O)Nc3ccc(O)c(CC(=O)O)c3)c2)c1 [I-22] | > 5 | > 5
17 | O=C(O)Cn1cc(-c2cncc(/C=C/c3ccccc3)c2)ccc1=O [I-287] | > 5 | > 5
18 | CCCOc1nc2ccccc2cc1C(=O)Nc1ccc(=O)n(CC(=O)O)c1 [I-188] | > 5 | > 5

Row | SMILES | IC50 [1] [µM] | IC50 [2] [µM]
19 | O=C(O)Cn1cc(-c2cccc(N3CCCCC3)c2)ccc1=O [I-314] | > 5 | > 5
20 | Cc1sc2c(c1C)C(c1ccc(Cl)cc1)=N[C@@H](CC(=O)NCCCCCCc1ccc(C(=O)Nc3ccc(=O)n(CC(=O)O)c3)cc1-c1cccnc1)c1nnc(C)n1-2 [I-473] | 0.05 to 0.5 | < 0.05
21 | O=C(O)Cn1cc(NC(=O)[C@@H]2CCCN(c3cccnc3)C2)ccc1=O [I-92] | 0.05 to 0.5 | 0.5 to 5
22 | Cc1cc(=O)n(CC(=O)O)cc1-c1cc(F)c(O)c(F)c1 [I-329] | > 5 | > 5
23 | O=C(O)Cn1cc(NC(=O)c2cccc(-c3ccc(C(F)(F)F)cc3)c2)ccc1=O [I-199] | > 5 | > 5
24 | COc1c(F)cc(-c2ccc(=O)n(CC(=O)O)c2)cc1F [I-347] | > 5 | > 5
25 | O=C(O)Cn1cc(NC(=O)[C@H]2Cc3ccccc3N(c3cccnc3)C2)ccc1=O [I-12] | > 5 | > 5
26 | O=C(O)C1CC(=O)N(Cc2ccccn2)C1 (stereo not drawn) [I-230] | > 5 | > 5
27 | Cc1cc(-c2ccc(=O)n(CC(=O)O)c2)c(C)cc1F [I-348] | > 5 | > 5
28 | O=C(O)CCC(=O)NCc1nc2ccccc2s1 [I-225] | > 5 | > 5
29 | O=C(O)Cn1cc(-c2cncc(CCc3ccccc3)c2)ccc1=O [I-285] | > 5 | > 5
30 | CC(C(=O)O)N1CCCCC1=O (stereo not drawn) [I-232] | > 5 | > 5
31 | CCc1ccccc1C(=O)Nc1ccc(=O)n(CC(=O)O)c1 [I-318] | > 5 | > 5
32 | CCOC(=O)Cn1cc(NC(=O)c2cccc(-c3cncc(CCCCCCNC(=O)OC(C)(C)C)c3)c2)ccc1=O [I-158] | > 5 | > 5
33 | O=C(O)Cn1cc(-c2ccccc2O)ccc1=O [I-406] | > 5 | > 5
34 | O=C(O)Cn1cc(-c2cccc(N3CCOCC3)c2)ccc1=O [I-322] | > 5 | > 5
35 | O=C(O)Cn1cc(-c2cccc(OCc3ccccc3)c2)ccc1=O [I-300] | > 5 | > 5
36 | O=C(O)Cn1cc(CNC(=O)c2ccccc2)ccc1=O [I-299] | > 5 | > 5
